Here are results for two compounds from patent publication US20250114487A1, “COMBINATION TREATMENT OF TUMORS” (The University of Chicago, priority 2023, published 2025).

Like-named read-outs stand apart in the source and are kept apart here. Some results are limits rather than exact numbers.

One assay concerns QGP1 cells. The assay can be described thus: QGP1 cell number after irradiation in the presence or absence of estrogen. Format: cell-based. Particulars: 3.5 days after irradiation (4 Gy). How it is done: Additional experiments were conducted to further evaluated the mechanism behind fulvestrant-induced radiosensitization. QGP1 cells were cultured in the presence or absence of estrogen and treated with fulvestrant, irradiation, or fulvestrant and irradiation. The number of cells were evaluated 3.5 days after irradiation (4 Gy). […] This is a strong indication that the effect of fulvestrant is off-target and not through the estrogen receptor pathway. RNA sequencing experiments were conducted to further evaluate the potential mechanism behind radiosensitization.

The subject of another assay is QGP1.SSTR2 mice. The assay can be described thus: In vivo PRRT sensitization, xenograft mice (QGP1.SSTR2).
The test system of assay [1] is ER36 or ER56. The assay can be described thus: Western blot of ERα isoform levels, QGP1 cells. The format is cell-based. The following applies: 100 mM fulvestrant. As to the method:
(§1) Western blot analysis was conducted in various NET cell lines to investigate expression levels of various ERα isoforms. The breast cancer cell line MCF7 was used as a positive control. […] In contrast, the most common isoform of ERα, ER66 kDa, was not present in QGP1 cells, as compared to MCF7. Expression of ER36 was further verified in NCI-H727 cells (FIG. 8B). Expression of ER56 was further verified in NCI-H727 cells and BON1 cells (FIG. 8C). […] Without wishing to be bound by theory, it is possible that this lack of effect of fulvestrant is because ER36 and ER 56 lack the […] binding region to which fulvestrant binds. […] (FIG. 8E).
(In general: In western blotting, separated proteins are transferred to a membrane and probed.)

Assay [2] has as its system QGP1.SSTR2 cells. The assay can be described thus: Additional clonogenic assays, QGP1.SSTR2 cells. The format is cell-based. Particulars: single agent (5.6 μCi Lu-177 DOTA-TATE or fulvestrant) compared to untreated cells. How it is done:
Additional clonogenic assays and in-vivo experiments were conducted using Lu-177 DOTA-TATE in combination with Fulvestrant. […] Results are quantified in FIG. 12B. Treatment with Lu-177-DOTA-TATE alone decreased the number of colonies compared to untreated cells and cells treated with fulvestrant alone. Treatment with fulvestrant alone decreased the number of colonies compared to untreated cells.

In assay [3] the test system is QGP-1 cells. The assay can be described thus: In vitro radiosensitization, QGP-1 cells. Particulars: 3.5 days following 100 nM Fulvestrant + IR (4 Gy) vs IR alone. The format is cell-based. The text has this: (§2) For in vitro experiments, various neuroendocrine tumor (NET) cell lines were used from different primary tumor origins. Specifically, pancreatic cells (QGP-1), small bowel cells (GOT-1), and lung cells (NCI-H727) were used. Cells were supplemented with estrogen (E2)-free or E2-supplemented media to determine the effects of E2 on cell proliferation and DNA repair factors. ESR1 was inhibited by si-RNA mediated knockdown of ESR1 or by administration of the selective estrogen receptor degrader Fulvestrant. Knockdown of ESR1 was achieved using […] siRNA. qPCR was performed to verify knockdown by quantifying ESR1 mRNA levels. For administration of Fulvestrant, 100 nm Fulvestrant was used.
(§3) Radiation (IR) was administered using a dose of 4 Gy using external beam radiation therapy (EBRT). Radiation was administered 24 hours following ESR1 inhibition.
(§4) Cells were treated with […] siRNA against ESR1 followed by irradiation (4 Gy dose), or treated with Fulvestrant followed by irradiation (4 Gy dose). […] Without wishing to be bound by theory, it is possible that estrogen inhibition radiosensitizes cells by decreasing expression of genes involved in DNA repair pathways. This was evaluated by measuring mRNA levels of DNA repair factors Rad51, BRCA1, and BRCA2 following treatment of QGP-1 cells with Fulvestrant for 36 hours or 72 hours.

A further assay relates to GOT-1 cells. The assay can be described thus: In vitro radiosensitization, GOT-1 cells. The format is cell-based.
Excerpt: as §2, §3, §4

In assay [4] the test system is ER36 or ER56. The assay can be described thus: Western blot of ERα isoform levels, NCI-H727 cells. Format: cell-based. Also on record: dose or concentration left out as unconfirmed. The following applies: fulvestrant. How it is done:
as §1

Assay [5] relates to QGP-1 cells. The assay can be described thus: Cell counting after irradiation with Fulvestrant and PARPi Talazoparib, QGP-1 cells. Format: cell-based. The following applies: fulvestrant in combination with irradiation vs fulvestrant alone, 3 days after irradiation.
Excerpt: Total number of cells were counted 3 days after irradiation.
The subject of assay [6] is ESR1, Rad51, BRCA1, BRCA2 mRNA. The assay can be described thus: qPCR of mRNA expression of DNA repair factors in QGP-1 cells. The format is cell-based. Particulars: QGP-1 cells treated with Fulvestrant for 36 hours or 72 hours.
Experimental: For in vitro experiments, various neuroendocrine tumor (NET) cell lines were used from different primary tumor origins. Specifically, pancreatic cells (QGP-1), small bowel cells (GOT-1), and lung cells (NCI-H727) were used. Cells were supplemented with estrogen (E2)-free or E2-supplemented media to determine the effects of E2 on cell proliferation and DNA repair factors. […] Knockdown of ESR1 was achieved using 30 uM siRNA. qPCR was performed to verify knockdown by quantifying ESR1 mRNA levels.
QGP-1 cells were growth in media with standard fetal bovine serum (WT), E2-free media for 7 days, or E-2 free media for 2 days followed by growth in E2 media containing 1 uM E2 additive for 24 hours. mRNA expression of DNA repair factors was evaluated by qPCR.
The subject of the next assay is SSTR2. The assay can be described thus: Western blot of SSTR2 levels, SSTR2 positive QGP1 cells. Format: cell-based. The following applies: SSTR2 positive QGP1 cells treated with fulvestrant or fulvestrant and irradiation.
Another assay has as its system QGP-1 tumors. The assay can be described thus: In vivo radiosensitization, mouse xenograft model with QGP-1 tumors. Particulars: for cumulative survival: IR (4 Gy) + 5 mg Fulvestrant subcutaneously compared to irradiation alone and Fulvestrant alone; for tumor volume size: compared to control groups. As to the method: For in vivo experiments, a mouse xenograft model created using QGP-1 cells was used.
as §3
Radiosensitization was subsequently evaluated in vivo using a mouse model harboring QGP-1 tumors. Four different treatment groups were used. One group was a control that received neither irradiation nor fulvestrant. The second group received fulvestrant alone (5 mg, subcutaneous). The third group received irradiation alone. The fourth group received irradiation and fulvestrant (5 mg. subcutaneous). Tumor volume and overall survival was evaluated. Tumor volume was evaluated at day 7, day 15, day 24, and day 35 post treatment. […] Control mice were euthanized between day 15 and day 24 due to deteriorating health. At day 24 and day 35, no control mice were surviving and as such results presented therein only show treatment with fulvestrant, treatment with irradiation, or treatment with fulvestrant and irradiation.

The test system of assay [7] is QGP1.SSTR2 cells. Particulars: 5.6 μCi dose of Lu-177 DOTA-TATE, alone or with 1 uM ATRA or 100 nM Fulvestrant.
Experimental: For in vitro studies, QGP1 cells (pancreatic NET cells) were engineered to express luciferase (QGP1.luc) or to express luciferase and overexpress the somatostatin receptor 2 (SSTR2) (QGP1.SSTR2.luc). Cells were treated with PRRT alone, or PRRT in combination with estrogen receptor inhibition or all-trans-retinoic acid (ATRA).
For assay [8], the system named is QGP1.SSTR2 cells or QGP1 cells not expressing SSTR2.
Experimental: Cells were treated with PRRT alone, or PRRT in combination with estrogen receptor inhibition or all-trans-retinoic acid (ATRA).

Experimental for QGP1.SSTR2 mice: In vivo studies were conducted in mice. […] Tumor volume and survival was assessed up to 100 days post injection.

As for `C[C@]12CC[C@@H]3c4ccc(O)cc4C[C@@H](CCCCCCCCC[S+]([O-])CCCC(F)(F)C(F)(F)F)[C@H]3[C@@H]1CC[C@@H]2O` (some centres unmarked) [Fulvestrant], the “radiosensitization (number of cells)” value in the assay on QGP1 cells was “radiosensitizes cells regardless of whether estrogen was present or not present”. The survival entry is recorded as “did not show significant differences” in the assay with QGP1.SSTR2 mice (compared to control mice) and “significantly longer survival” in the assay with QGP-1 tumors (fulvestrant alone vs untreated control mice). In addition, the “ER36 or ER56 levels” value in the assay on ER36 or ER56 [1] and with ER36 or ER56 [4] was “not found to influence” each time. For the same compound, the number of colonies entry with QGP1.SSTR2 cells [2] is “decreased”. For the same compound, the total cell growth result with QGP-1 cells [3] and with GOT-1 cells (3.5 days following 100 nM Fulvestrant + irradiation (4 Gy) vs irradiation alone) was “significant decrease” in each case. In addition, the total cell entry in the assay on GOT-1 cells (5 days following 100 nM Fulvestrant + IR (4 Gy) vs IR alone) is on record as “significant decrease”. Besides, in the assay on QGP-1 cells [5], the cell death result was “increases cell death”. Also, the “mRNA levels of Rad51, BRCA1, BRCA2” value in [6] was “lower”. Further, in the assay with SSTR2, the SSTR2 levels entry is “did not increase”. The figures for the cumulative survival result in the assay on QGP-1 tumors and with QGP-1 tumors (listed as Fulevestrant) were “significantly improved survival” and “significantly improved cumulative survival”, respectively. Besides, in the assay with QGP-1 tumors (combination of irradiation (4 Gy) and fulvestrant (5 mg, subcutaneous)), the “survival, up to” value is reported as “up to 70 days”. Moreover, in the assay with QGP-1 tumors (day 35 post treatment, irradiation and fulvestrant compared to irradiation alone), the tumor volume result is reported as “significant decrease”. Besides, the tumor volume size entry in the assay on QGP-1 tumors (fulvestrant alone (5 mg, subcutaneous)) was “decreased”; in the assay with QGP-1 tumors (irradiation plus fulvestrant (5 mg, subcutaneous)), “decreased”. Further, in the assay with QGP-1 tumors (fulvestrant alone (5 mg, subcutaneous), untreated control not past day 18), the “survival, until day” value was no more than 28 days.

In the case of `C[C@@H](O)[C@H](NC(=O)[C@@H]1CSSC[C@H](NC(=O)[C@@H](Cc2ccccc2)NC(=O)CN2CCN(CC(=O)[O-])CCN(CC(=O)[O-])CCN(CC(=O)[O-])CC2)C(=O)N[C@@H](Cc2ccc(O)cc2)C(=O)N[C@H](Cc2c[nH]c3ccccc23)C(=O)N[C@@H](CCCCN)C(=O)N[C@@H]([C@@H](C)O)C(=O)N1)C(=O)O.[177Lu+3]` [Lu-177 DOTA-TATE, lutetium Lu-177 DOTA-TATE], the “mice surviving at day 100” value in the assay on QGP1.SSTR2 mice (Lu-177-DOTA-TATE alone) was “less than 25%”. For the same compound, the survival entry in the assay with QGP1.SSTR2 mice (compared to control mice and mice treated with fulvestrant) is listed as “significantly longer”. Further, the tumor volume result in the assay with QGP1.SSTR2 mice (day 7 and day 21 post injection, compared to control mice and mice treated with fulvestrant alone) is on record as “significantly smaller”. Moreover, the colony count entry with QGP1.SSTR2 cells [7] is listed as “about 40 cells”. Further, in the assay on QGP1.SSTR2 cells [2], the number of colonies result is on record as “decreased”. For the same compound, the cell count entry in assay [8] (5.6 μCi Lu-177 DOTA-TATE alone, FIG. 10B) is recorded as “about 150”; in [8] (14.6 μCi Lu-177 DOTA-TATE alone, FIG. 10C) it was “less than 40”.
